Measured values from patent publication US10220034B2, “Hepatitis B viral assembly effectors” (Indiana University Research and Technology Corp., priority 2013, dated 2019).

What was measured:
[1] = tested on: AD38 cells; assay: Activity of test compounds on viral production from AD38 cells (qPCR viral load); assay type: cell-based, HBV; set-up: key: (+) depicting meets criteria for significant activity; (++) depicting exceeds criteria; details: 5 days, supernatant qPCR
Method: AD38 cells grown in a 175 cm flash with Growth Medium (DMEM/F12 (1:1) (cat#SH30023.01, Hyclone, 1× Pen/step (cat#: 30-002-CL, Mediatech, Inc), 10% FBS (cat#: 101, Tissue Culture Biologics), 250 μg/mL G418 (cat#: 30-234-CR, Mediatech, Inc), 1 μg/mL Tetracycline (cat#: T3325, Teknova)) were detached with 0.25% trypsin. Tetracycline-free treatment medium (15 mL DMEM/F12 (1:1) (cat#SH30023.01, Hyclone, 1× Pen/step (cat#: 30-002-CL, Mediatech, Inc), with 2% FBS, Tet-system approved (cat#: 631106, Clontech) were then added to mix and spun at 1300 rpm for 5 min. Pelleted cells were then re-suspended/washed with 50 mL of 1×PBS 2 times and 10 mL treatment medium one time. AD38 cells were then re-suspended with 10 mL of treatment medium and counted. Wells of a collagen coated 96-well NUNC microtiter plate were seeded at 50,000/well in 180 μL of treatment medium, and 20 μL of either 10% DMSO (Control) or a 10× solution of test compound in 10% DMSO in treatment media was added for as final compound concentration 1, 3, or 10 μM (1.0% final [DMSO]) and plates were incubated for 5 days at 37° C.
Subsequently viral load production was assayed by quantitative PCR of the core sequence. Briefly, 5 μL of clarified supernatant was added to a PCR reaction mixture that contained forward primers HBV-f 5′-[…]-3′, Reverse primers HBV-r 5′-[…]-3′ and Fluorescent TaqMan™ Probes HBV-probe 5′-FAM/[…]/ZEN/[…]/31ABkFQ-3′ in Quanta Biosciences PerfeCTa® qPCR Toughmix®, and was subsequently on an Applied Biosystems VIIA7 in a final volume of 20 μL. The PCR mixture was incubated at 45° C. for 5 minutes, then 95° C. for 10 min, followed by 40 cycles of 10 seconds at 95° C. and 20 seconds at 60° C. Viral load was quantitated against known standards by using ViiA™ 7 Software. Viral load in the supernatant from wells with treated cells were compared against viral load in supernatant from DMSO control wells (≥3 per plate). In Table 4, concentrations of test compound causing reductions in viral load greater than at least 3 standard deviations from the DMSO controls across all plates were considered active, with (+) depicting meets criteria for significant activity, and (++) depicting exceeds criteria.

[2] = tested on: HBV Cp; assay: Capsid assembly assay (fluorescence quenching); details: 10 μM compound, control reactions with no drug show 25±5% assembly

Structure (SMILES)	reduction in viral load vs DMSO controls ([1]; test concentration 1 μM)	reduction in viral load vs DMSO controls ([1]; test concentration 3 μM)	reduction in viral load vs DMSO controls ([1]; test concentration 10 μM)	% Capsid formation at 24 h (10 μM) [2]
COc1ccc(S(=O)(=O)N2CCN(c3nc(C)cc(Nc4ccc(C(F)(F)F)cc4)n3)CC2)cc1 [compound 40]	++	++	++	91%
COc1ccc(S(=O)(=O)N2CCN(c3nc(C)cc(Nc4ccc(C#N)cc4)n3)CC2)cc1 [compound 42]	–	–	++	69%
